For one series, the target named is T1, c-MET (Homo sapiens, UniProt P08581).
T1 construct: endogenous in cells; host or cells: KMS34 multiple myeloma cells
Description: Western blot, dose-dependent inhibition of c-MET phosphorylation in KMS34 cells. Type of series: cell-based. The following applies: Western blot densitometry, read-out: 50% inhibition of the phosphorylation of c-MET. As to the method:
(§1) MM cells (4 × 10^5 cells/mL) were incubated with 0–20 μM GTN057 for 12 h. The cells were then co‐cultured with 0–50 ng/mL of hepatocyte growth factor (HGF) (PeproTech, London) or 0–20 ng/mL of fibroblast growth factor (FGF)‐2 (PeproTech) with 1 unit/mL of heparin in RPMI containing 4% dialyzed FCS (Gibco) for the KMS11 and KMS34 cells and 10% dialyzed FCS for the KMS21 cells for 15 min at RT (room temperature). A549 cells were co‐cultured with 0–50 ng/mL of epidermal growth factor (EGF) (PeproTech) in Eagle's MEM containing 4% dialyzed FCS for 15 min at RT. […]
(§2) The protein concentrations were measured using a BCA Protein Assay Kit (Thermo Fisher Scientific). […]
(§3) Antibodies against phospho‐STAT3 (Tyr705), phospho‐Akt (Ser473), p44/42 MAPK (Erk 1/2), phosphor‐p44/42 MAPK (Thr202/Tyr 204), and phospho‐c‐Met (Tyr1234/1235) (all from Cell Signaling Technology, Danvers, MA) or STAT3, Akt, c‐Met, and β‐actin (all from Santa Cruz Biotechnology, Santa Cruz, CA) or phospho‐c‐Met (Tyr1230/1234/1235) (Biosource, Camarillo, CA for KMS34 cells in Figure 3A) were each used at 1:1000 dilution. […] The Western blotting signals were detected by enhanced ECL chemiluminescence (Amersham). The signal intensity of each band was quantified densitometrically with ImageJ software (ver. 1.48, U.S. National Institutes of Health).
(A western blot detects proteins with antibodies after separation by electrophoresis.)

Series [1] is described as follows: Toxicity assessment in ICR mice. It counts as in vivo. From the text: For the toxicity assessment of GTN057 in vivo, we intraperitoneally (i.p.)‐injected male 5‐week‐old ICR mice (CLEA, […]) dissolved in 1% Tween® 80 + 10% DMSO in saline on 2 consecutive days of every 3‐day period for 2 weeks. The mice were weighed every week. Peripheral blood was collected with a heparinized hematocrit tube (Terumo, Tokyo) from the tail vein of each mouse every week and was stained with Türk's solution (Merck). The numbers of leukocytes and neutrophils were counted using light microscopy.

The next series relates to KMS11 xenografted tumor. Description: Histopathologic and immunohistochemical examination of xenografts. Type of series: in vivo, ICR/SCID mice. The following applies: GTN057-treated KMS11 xenografts, immunohistochemistry. From the text: Xenografts were excised and fixed with 10% formalin and embedded in paraffin. Five‐μm sliced sections were used for hematoxylin and eosin (H&E) staining. For the immunohistochemical evaluation, we used anti‐human cleaved poly(ADP‐ribose), polymerase (PARP), polyclonal antibody (pAb) (Cell Signaling Technology Japan, Tokyo), anti‐human Ki‐67 monoclonal antibody (mAb) (clone MIB‐1) (Dako Japan, Tokyo), anti‐human cleaved caspase‐3 (Asp175), pAb (Cell Signaling Technology Japan), and anti‐human Factor VIII mAb (Atlas Antibodies).

Another series has as its system ERK1/2. Description: Western blot, dose-dependent inhibition of ERK1/2 phosphorylation in KMS34 cells. It counts as cell-based. The following applies: Homo sapiens, KMS-34, Western blot densitometry, read-out: 50% inhibition of the phosphorylation of ERK1/2. As to the method: as §1, §2, §3
In the next series the test system is KMS11 cells. Description: Growth inhibition, trypan blue exclusion assay. Type of series: cell-based. The following applies: Homo sapiens, KMS-11, KMS11, 48 h. The protocol: (§4) For the trypan blue exclusion assay, 2 × 10^5 cells/mL of each MM cell line were incubated with various concentrations of GTN057 (0–20 μM). The cells were cultured in triplicate plates, and viable cells were evaluated by a trypan blue exclusion assay (Trypan Blue Stain 0.4%, Gibco) using an automatic cell counter (TC20™, Bio‐Rad).

The subject of another series is KMS26 cells. Description: Growth inhibition, trypan blue exclusion assay. Type of series: cell-based. The following applies: Homo sapiens, KMS-26, KMS26, 48 h. As to the method: as §4
The subject of the next series is KMS34 cells. Description: Growth inhibition, trypan blue exclusion assay. Type of series: cell-based. The following applies: Homo sapiens, KMS-34, KMS34, 48 h. As to the method:
as §4

In the next series the test system is KMS21 cells. Description: Growth inhibition, trypan blue exclusion assay. Type of series: cell-based. The following applies: Homo sapiens, KMS21, 48 h. As to the method:
as §4

The next series deals with KMS28 cells. Description: Growth inhibition, trypan blue exclusion assay. It counts as cell-based. The following applies: Homo sapiens, KMS28, 48 h. The protocol: as §4
The subject of a further series is KMS27 cells. Description: Growth inhibition, trypan blue exclusion assay. Type of series: cell-based. The following applies: Homo sapiens, KMS-27, KMS27, 48 h. The protocol:
as §4

In another series the test system is KMM1 cells. Description: Growth inhibition, trypan blue exclusion assay. It counts as cell-based. The following applies: Homo sapiens, KMM-1, KMM1, 48 h. As to the method: as §4
The next series has as its system MUM24 cells. Description: Growth inhibition, trypan blue exclusion assay. It counts as cell-based. The following applies: Homo sapiens, MUM24, 48 h. As to the method:
as §4

For the next series, the system named is HGF/c-MET signaling. Description: Western blot, HGF-stimulated signaling in KMS11, KMS21 and KMS34 cells. Type of series: cell-based, human. The following applies: 20 μM GTN057. The protocol: as §1, §2, §3

T1 sequence (P08581 25-1390): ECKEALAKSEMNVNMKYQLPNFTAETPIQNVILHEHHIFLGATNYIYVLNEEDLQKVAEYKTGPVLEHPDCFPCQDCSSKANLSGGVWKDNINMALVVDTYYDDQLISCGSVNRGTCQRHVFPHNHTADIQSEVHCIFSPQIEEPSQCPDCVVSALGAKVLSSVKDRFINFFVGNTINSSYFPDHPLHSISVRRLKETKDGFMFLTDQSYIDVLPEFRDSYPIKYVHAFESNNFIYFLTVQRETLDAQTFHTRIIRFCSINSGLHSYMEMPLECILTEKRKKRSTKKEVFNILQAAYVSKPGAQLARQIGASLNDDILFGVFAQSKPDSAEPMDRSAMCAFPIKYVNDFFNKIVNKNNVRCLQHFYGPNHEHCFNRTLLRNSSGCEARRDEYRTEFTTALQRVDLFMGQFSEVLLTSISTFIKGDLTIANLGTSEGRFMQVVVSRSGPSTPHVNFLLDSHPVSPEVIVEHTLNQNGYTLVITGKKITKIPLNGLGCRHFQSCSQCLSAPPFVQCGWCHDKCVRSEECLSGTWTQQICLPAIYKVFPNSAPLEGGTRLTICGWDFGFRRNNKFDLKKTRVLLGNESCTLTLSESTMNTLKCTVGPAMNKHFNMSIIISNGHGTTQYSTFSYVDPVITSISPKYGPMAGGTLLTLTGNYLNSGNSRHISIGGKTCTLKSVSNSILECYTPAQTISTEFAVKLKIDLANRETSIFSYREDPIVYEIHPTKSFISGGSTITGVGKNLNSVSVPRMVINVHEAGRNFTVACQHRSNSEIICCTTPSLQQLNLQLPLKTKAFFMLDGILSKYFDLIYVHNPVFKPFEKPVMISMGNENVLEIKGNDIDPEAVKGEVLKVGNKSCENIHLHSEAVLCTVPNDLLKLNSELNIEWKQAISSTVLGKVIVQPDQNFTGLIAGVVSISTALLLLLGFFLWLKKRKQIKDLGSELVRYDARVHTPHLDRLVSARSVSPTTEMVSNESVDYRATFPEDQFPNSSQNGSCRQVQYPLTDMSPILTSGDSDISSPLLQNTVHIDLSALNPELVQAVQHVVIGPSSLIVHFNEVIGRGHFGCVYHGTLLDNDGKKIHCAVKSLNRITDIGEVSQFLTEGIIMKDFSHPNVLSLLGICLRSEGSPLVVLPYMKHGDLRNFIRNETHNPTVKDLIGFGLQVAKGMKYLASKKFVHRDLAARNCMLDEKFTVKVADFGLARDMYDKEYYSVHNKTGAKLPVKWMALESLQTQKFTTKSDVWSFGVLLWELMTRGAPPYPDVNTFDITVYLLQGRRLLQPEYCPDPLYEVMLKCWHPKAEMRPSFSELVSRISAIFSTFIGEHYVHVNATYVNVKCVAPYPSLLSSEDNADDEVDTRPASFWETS

On to `COc1c(OC(C)=O)c2c(c(O)c1C(C)C)C(=O)CC1C(C)(C)CCC[C@]1(O)C2` (stereo partly drawn) [GTN057], for which the IC50 was 35.9 µM at c-MET; 21.3 µM in the series with ERK1/2; 11.2 µM with KMS11 cells; 9.91 µM in the series on KMS26 cells; 20.1 µM with KMS34 cells; 10.1 µM in the series on KMS21 cells. Also, the IC50 in the series with KMS28 cells turned out to be 24 µM; in the series with KMS27 cells it was 7.93 µM; in the series on KMM1 cells it was 20.5 µM; in the series on MUM24 cells, 5.29 µM. Moreover, the “Neutropenia and systemic toxicity” value in series [1] (100 mg/kg, 2 days of each 3-day period over 2 weeks, mice) is given as “no significant neutropenia or systemic toxicity”. The “Body weight and leukocyte count” value in series [1] (40 or 100 mg/kg i.p., 2 consecutive days of each 3-day period for 2 weeks, ICR mice) was “neither a loss of body weight nor leukocytopenia”. In addition, in series [1] (i.p., 2 days of every 3-day period, mice), the Maximal tolerated dose is recorded as ≥ 100 mg/kg. Also, in the series with KMS11 xenografted tumor, the “Number of Factor VIII-positive vessel cells” value is “decreased”. Moreover, in the series with KMS11 xenografted tumor, the “Numbers of cleaved-caspase-3-positive and PARP-positive cells” value was “significantly increased”. Besides, in the series on KMS11 xenografted tumor, the “Staining for cell proliferation marker MIB-1/Ki67” value is “weakened”. The “Phosphorylation of ERK1/2, STAT3 and Akt1” value in the series with HGF/c-MET signaling (KMS11, KMS21, KMS34 cells, 50 ng/mL HGF) is given as “diminished”. The “Phosphorylation at y1234 y1235 of c-MET” value in the series on HGF/c-MET signaling (co-culture with HGF) is given as “abolished”.

These data come from paper PMC10166914, “GTN057, a komaroviquinone derivative, induced myeloma cells' death in vivo and inhibited c‐MET tyrosine kinase” (Cancer Medicine, 2023).
